We go through 64 compounds from ChEMBL document CHEMBL1146189, “Antiproliferation and apoptosis induced by C-glycosides in human leukemia cancer cells” (Bioorg Med Chem Lett, 2006).

The source made the active and inactive calls. No cut-off for these calls is given here.

The first test relates to HL-60. The test is described as follows: Antiproliferative activity against human HL60 cells by MTT assay. Type of test: functional, cell-based. To be noted: Homo sapiens, HL-60; read-out: IC50.
For orientation: IC50 means the concentration that inhibits the measured activity by half. Turning to `OC[C@H]1O[C@@H](Cc2ccccc2)[C@H](O)[C@@H](OCc2ccccc2)[C@@H]1OCc1ccccc1`, the concentration for half-maximal inhibition (IC50) was found to be 20.2 µM.

In the case of `OCCC[C@@H]1O[C@H](COCc2ccccc2)[C@@H](OCc2ccccc2)[C@H](OCc2ccccc2)[C@H]1O`, the 50% inhibitory concentration (IC50) was determined as 19.3 µM.

For the compound `O[C@@H]1[C@@H](OCc2ccccc2)[C@H](OCc2ccccc2)[C@@H](COCc2ccccc2)O[C@@H]1CC1CCCCC1`, the 50% inhibitory concentration (IC50) stood at 17.2 µM.

On to `CC1(C)OC[C@@H]2O[C@H](COCc3ccccc3)[C@@H](OCc3ccccc3)[C@H](OCc3ccccc3)[C@H]2O1`, for which the half-inhibitory concentration (IC50) is 12.5 µM.

Take `c1ccc(COC[C@H]2OCC[C@@H](OCc3ccccc3)[C@@H]2OCc2ccccc2)cc1`: the 50% inhibitory concentration (IC50) stood at 39.3 µM.

On to `CC(C)(C)C[C@H]1O[C@H](COCc2ccccc2)[C@@H](OCc2ccccc2)[C@H](OCc2ccccc2)[C@H]1O`, for which the IC50 worked out at 12.1 µM.

Regarding `O[C@@H]1[C@@H](OCc2ccccc2)[C@H](OCc2ccccc2)[C@@H](COCc2ccccc2)O[C@H]1CC1CCCCC1`, the IC50 amounted to 4.1 µM.

For `CCC[C@H]1O[C@H](COCc2ccccc2)[C@@H](OCc2ccccc2)[C@H](OCc2ccccc2)[C@H]1O`, the IC50 stood at 28.2 µM.

On to `C[C@@H]1O[C@H](COCc2ccccc2)[C@@H](OCc2ccccc2)[C@H](OCc2ccccc2)[C@H]1O`, for which the 50% inhibitory concentration (IC50) worked out at 8.4 µM.

As for `CC[C@@H]1O[C@H](COCc2ccccc2)[C@@H](OCc2ccccc2)[C@H](OCc2ccccc2)[C@H]1O`, the concentration for half-maximal inhibition (IC50) came to 8.2 µM.

Consider `CCC[C@@H]1O[C@H](COCc2ccccc2)[C@@H](OCc2ccccc2)[C@H](OCc2ccccc2)[C@H]1O`, for which the IC50 was 11.7 µM.

As to `C=C[C@@H]1O[C@H](COCc2ccccc2)[C@@H](OCc2ccccc2)[C@H](OCc2ccccc2)[C@H]1O`, the half-inhibitory concentration (IC50) is 11.8 µM.

`C=CC[C@@H]1O[C@H](COCc2ccccc2)[C@@H](OCc2ccccc2)[C@H](OCc2ccccc2)[C@H]1OC(C)=O`: the IC50 came out at 26.9 µM.

On to `O[C@@H]1[C@@H](OCc2ccccc2)[C@H](O)[C@@H](COCc2ccccc2)O[C@H]1Cc1ccccc1`, for which the 50% inhibitory concentration (IC50) worked out at 35.3 µM.

Take `ClC1(Cl)[C@@H]2[C@@H](OCc3ccccc3)[C@H](OCc3ccccc3)[C@@H](COCc3ccccc3)O[C@@H]21`: the IC50 was 46.4 µM.

On to `C=CC[C@@H]1O[C@H](COCc2ccccc2)[C@@H](OCc2ccccc2)[C@H](OCc2ccccc2)[C@H]1O`, for which the IC50 is 15.1 µM.

Take `CC(C)C[C@H]1O[C@H](COCc2ccccc2)[C@@H](OCc2ccccc2)[C@H](OCc2ccccc2)[C@H]1O`: the 50% inhibitory concentration (IC50) is 13.9 µM.

`O[C@@H]1[C@@H](OCc2ccccc2)[C@H](OCc2ccccc2)[C@@H](COCc2ccccc2)O[C@H]1Cc1ccccc1`: the 50% inhibitory concentration (IC50) was found to be 8.7 µM.

Consider `O[C@@H]1[C@@H](O)[C@H](Cc2ccccc2)O[C@H](COCc2ccccc2)[C@H]1OCc1ccccc1`, for which the half-maximal inhibitory concentration (IC50) came out at 26.6 µM.

As to `C=CC[C@@H]1O[C@H](COCc2ccccc2)[C@@H](OCc2ccccc2)[C@H](OCc2ccccc2)C1=O`, the IC50 is 31.8 µM.

Regarding `O[C@@H]1[C@@H](OCc2ccccc2)[C@H](OCc2ccccc2)[C@@H](COCc2ccccc2)O[C@H]1c1ccccc1`, the IC50 was determined as 26.3 µM.

In the case of `c1ccc(COC[C@H]2O[C@@H]3C[C@@H]3[C@@H](OCc3ccccc3)[C@@H]2OCc2ccccc2)cc1`, the IC50 was 38.5 µM.

For `CC(C)C[C@@H]1O[C@H](COCc2ccccc2)[C@@H](OCc2ccccc2)[C@H](OCc2ccccc2)[C@H]1O`, the half-maximal inhibitory concentration (IC50) is 8.5 µM.

Still in this test, the particulars now being: hl-60.
`CCC[C@@H]1O[C@H](CO)[C@@H](O)[C@H](O)[C@H]1O`: the half-inhibitory concentration (IC50) result is “Not Active”.

`CCC[C@H]1O[C@H](COCc2ccccc2)[C@@H](OCc2ccccc2)[C@H](OCc2ccccc2)[C@@H]1O`: the IC50 entry is listed as “Not Active”.

In the case of `CCCCC[C@@H]1O[C@H](COCc2ccccc2)[C@@H](OCc2ccccc2)[C@H](OCc2ccccc2)[C@H]1O`, the 50% inhibitory concentration (IC50) entry is “Not Active”.

`CCC[C@H]1O[C@H](COCc2ccccc2)[C@H](OCc2ccccc2)[C@H](OCc2ccccc2)[C@H]1O`: the IC50 entry is “Not Active”.

For the compound `CCCCCCCCCCCCCCCOC[C@H]1O[C@@H](CCC)[C@H](O)[C@@H](OCCCCCCCCCCCCCCC)[C@@H]1OCCCCCCCCCCCCCCC`, the half-maximal inhibitory concentration (IC50) result is reported as “Not Active”.

As for `C=CC[C@@H]1O[C@H](COCc2ccccc2)[C@@H](OCc2ccccc2)[C@H](OCc2ccccc2)C1O` (single isomer, unassigned), the IC50 entry is reported as “Not Active”.

For `CC(=O)OC[C@H]1O[C@@H](Cc2ccccc2)[C@H](OC(C)=O)[C@@H](OC(C)=O)[C@@H]1OC(C)=O`, the IC50 result is listed as “Not Active”.

Take `CCCC[C@@H]1O[C@H](COCc2ccccc2)[C@@H](OCc2ccccc2)[C@H](OCc2ccccc2)[C@H]1O`: the half-inhibitory concentration (IC50) result is recorded as “Not Active”.

Regarding `CC(=O)O[C@@H]1[C@@H](OCc2ccccc2)[C@H](OCc2ccccc2)[C@@H](COCc2ccccc2)O[C@H]1Cc1ccccc1`, the half-inhibitory concentration (IC50) result is given as “Not Active”.

`O[C@H]1CO[C@H](COCc2ccccc2)[C@@H](OCc2ccccc2)[C@@H]1OCc1ccccc1`: the 50% inhibitory concentration (IC50) entry is recorded as “Not Active”.

Regarding `CC(C)C[C@H]1O[C@H](COCc2ccccc2)[C@H](OCc2ccccc2)[C@H](OCc2ccccc2)[C@H]1O`, the 50% inhibitory concentration (IC50) result is reported as “Not Active”.

`O[C@@H]1[C@@H](O)[C@H](Cc2ccccc2)O[C@H](COCc2ccccc2)[C@H]1O`: the IC50 entry is given as “Not Active”.

As for `O[C@@H]1[C@@H](OCc2ccccc2)[C@H](OCc2ccccc2)[C@@H](COCc2ccccc2)O[C@]12CCCO2`, the IC50 result is given as “Not Active”.

Consider `C=CC[C@@H]1O[C@H](COC(C)=O)[C@@H](OC(C)=O)[C@H](OC(C)=O)[C@H]1OC(C)=O`, for which the IC50 entry is on record as “Not Active”.

Consider `CC(C)C[C@H]1O[C@H](COCc2ccccc2)[C@@H](OCc2ccccc2)[C@H](OCc2ccccc2)[C@@H]1O`, for which the IC50 result is reported as “Not Active”.

For `O[C@@H]1[C@@H](OCc2ccccc2)[C@H](OCc2ccccc2)[C@@H](COCc2ccccc2)O[C@@H]1c1ccccc1`, the IC50 entry was “Not Active”.

In the case of `CCC[C@@H]1O[C@H](COCc2ccccc2)[C@H](OCc2ccccc2)[C@H](OCc2ccccc2)[C@H]1O`, the IC50 result is “Not Active”.

Consider `CCC[C@@H]1O[C@H](COCc2ccccc2)[C@@H](OCc2ccccc2)[C@H](OCc2ccccc2)[C@@H]1O`, for which the 50% inhibitory concentration (IC50) result is on record as “Not Active”.

On to `CC(=O)OC[C@@H]1O[C@H](COCc2ccccc2)[C@@H](OCc2ccccc2)[C@H](OCc2ccccc2)[C@H]1OC(C)=O`, for which the concentration for half-maximal inhibition (IC50) entry is listed as “Not Active”.

Regarding `CC(=O)OC[C@@H]1O[C@H](COCc2ccccc2)[C@@H](OCc2ccccc2)[C@H](OCc2ccccc2)[C@H]1OCc1ccccc1`, the IC50 result is listed as “Not Active”.

`OC[C@H]1O[C@@H](Cc2ccccc2)[C@H](O)[C@@H](O)[C@@H]1OCc1ccccc1`: the 50% inhibitory concentration (IC50) entry is listed as “Not Active”.

In the case of `C#CC[C@@H]1O[C@H](COCc2ccccc2)[C@@H](OCc2ccccc2)[C@H](OCc2ccccc2)[C@H]1O`, the half-maximal inhibitory concentration (IC50) result is recorded as “Not Active”.

For the compound `C=CC[C@@H]1O[C@H](CO)[C@@H](O)[C@H](O)[C@H]1O`, the IC50 entry is recorded as “Not Active”.

As for `CC(C)C[C@@H]1O[C@H](COCc2ccccc2)[C@H](OCc2ccccc2)[C@H](OCc2ccccc2)[C@H]1O`, the IC50 entry is “Not Active”.

Consider `CCCCCCCCCCCCCCCOC[C@H]1O[C@H](CCC)[C@H](O)[C@@H](OCCCCCCCCCCCCCCC)[C@@H]1OCCCCCCCCCCCCCCC`, for which the IC50 result is on record as “Not Active”.

Consider `CCCCOC[C@H]1O[C@@H](CCC)[C@H](O)[C@@H](OCCCC)[C@@H]1OCCCC`, for which the IC50 result is listed as “Not Active”.

As for `O[C@@H]1[C@@H](OCc2ccccc2)[C@H](OCc2ccccc2)[C@@H](COCc2ccccc2)O[C@@H]1Cc1ccccc1`, the half-inhibitory concentration (IC50) entry is “Not Active”.

For `O[C@@H]1[C@@H](OCc2ccccc2)[C@H](OCc2ccccc2)[C@@H](COCc2ccccc2)O[C@@]12CCCO2`, the IC50 entry is reported as “Not Active”.

Take `C=C[C@H]1O[C@H](COCc2ccccc2)[C@@H](OCc2ccccc2)[C@H](OCc2ccccc2)[C@H]1OC(C)=O`: the concentration for half-maximal inhibition (IC50) entry is “Not Active”.

`CC(=O)O[C@@H]1[C@@H](OCc2ccccc2)[C@H](OCc2ccccc2)[C@@H](COCc2ccccc2)O[C@@H]1Cc1ccccc1`: the concentration for half-maximal inhibition (IC50) entry was “Not Active”.

Consider `O[C@@H]1[C@@H](OCc2ccccc2)[C@H](OCc2ccccc2)[C@@H](COCc2ccccc2)O[C@H]1CC1CC1`, for which the IC50 entry was “Not Active”.

As for `C=C[C@H]1O[C@H](COCc2ccccc2)[C@@H](OCc2ccccc2)[C@H](OCc2ccccc2)[C@H]1O`, the half-maximal inhibitory concentration (IC50) entry is listed as “Not Active”.

Consider `C[C@H]1O[C@H](COCc2ccccc2)[C@@H](OCc2ccccc2)[C@H](OCc2ccccc2)[C@H]1O`, for which the IC50 entry is given as “Not Active”.

Consider `CCC[C@@H]1O[C@H](COC)[C@@H](OC)[C@H](OC)[C@H]1O`, for which the IC50 entry is listed as “Not Active”.

As to `c1ccc(COC[C@H]2O[C@H]3C[C@H]3[C@@H](OCc3ccccc3)[C@@H]2OCc2ccccc2)cc1`, the IC50 result is reported as “Not Active”.

As to `CC[C@H]1O[C@H](COCc2ccccc2)[C@@H](OCc2ccccc2)[C@H](OCc2ccccc2)[C@H]1O`, the half-inhibitory concentration (IC50) result is given as “Not Active”.

Consider `CC(C)C[C@@H]1O[C@H](COCc2ccccc2)[C@@H](OCc2ccccc2)[C@H](OCc2ccccc2)[C@@H]1O`, for which the IC50 result was “Not Active”.

On to `OC[C@H]1O[C@@H](Cc2ccccc2)[C@H](O)[C@@H](O)[C@@H]1O`, for which the IC50 result was “Not Active”.

Regarding `OC[C@H]1O[C@@H](Cc2ccccc2)[C@H](O)[C@@H](OCc2ccccc2)[C@@H]1O`, the half-maximal inhibitory concentration (IC50) entry is given as “Not Active”.

For `CC(C)(C)C[C@@H]1O[C@H](COCc2ccccc2)[C@@H](OCc2ccccc2)[C@H](OCc2ccccc2)[C@H]1O`, the 50% inhibitory concentration (IC50) entry is recorded as “Not Active”.

For `CCCC[C@H]1O[C@H](COCc2ccccc2)[C@@H](OCc2ccccc2)[C@H](OCc2ccccc2)[C@H]1O`, the IC50 result is listed as “Not Active”.

The next test concerns HL-60. The test is described as follows: Induction of apoptosis in human HL60 cells. Type of test: functional, cell-based.
Conditions: not given
As for `CC1(C)OC[C@@H]2O[C@H](COCc3ccccc3)[C@@H](OCc3ccccc3)[C@H](OCc3ccccc3)[C@H]2O1`, the result was Active.

`CC[C@@H]1O[C@H](COCc2ccccc2)[C@@H](OCc2ccccc2)[C@H](OCc2ccccc2)[C@H]1O`: the result was Active.

As for `C=CC[C@@H]1O[C@H](COCc2ccccc2)[C@@H](OCc2ccccc2)[C@H](OCc2ccccc2)[C@H]1O`, the outcome was Active.

With `CC(C)C[C@@H]1O[C@H](COCc2ccccc2)[C@@H](OCc2ccccc2)[C@H](OCc2ccccc2)[C@H]1O`, the result was Active.
